Consider one compound from PMC9102502, “The Influence of Selected Antipsychotic Drugs on Biochemical Aspects of Alzheimer’s Disease” (International Journal of Molecular Sciences, 2022).

One data set has as its system human erythrocytes. Briefly: Methemoglobin formation in RBC with AAPH. Conditions: 5 h, AAPH control 61.9%. It is filed as cell-based. The protocol:
The blood samples were centrifuged (3000 rpm, 10 min, 20 °C, Micro 22 R centrifuge, Hettich Zentrifugen, Tuttlingen, Germany) to separate erythrocytes from the plasma and washed three times with 0.9% saline (NaCl). […] The erythrocytes were suspended in 0.9% saline. As control of basal hemolysis, erythrocytes were incubated with 0.9% NaCl. For total hemolysis control erythrocytes were incubated with 2.0% v/v Triton X-100. Incubation with Triton X-100 and K4[Fe(CN)6] (at concentration 50 g/L) was performed to control methemoglobin (MetHb) formation. Moreover, an antioxidant control containing ascorbic acid (AA) at a concentration of 10 µg/mL was prepared, while AAPH at a concentration of 50 mmol/L was an oxidizing agent. Antipsychotics at concentrations equaling their maximum therapeutic plasma concentrations (TPCmax), as well as 5-fold higher (5 × TPCmax) and 5-fold lower than TPCmax (1/5 × TPCmax), and the oxidizing agent AAPH at a concentration of 50 mmol/L, were added to 2% RBC suspension. Controls and tested samples were incubated at 37 °C. […] For each measurement, 0.5 mL samples were taken from incubated Eppendorf tubes and centrifuged (3000 rpm, 10 min). […] The percentage of hemolysis was calculated with the following formula:Hemolysis (%) = (Asample/Atotal hemolysis) × 100%(1) where Asample—absorbance of the test sample; Atotal hemolysis—the absorbance of the reference sample with 2% Triton X solution, corresponding to complete hemolysis.

In data set [1] the target is T1, human erythrocyte acetylcholinesterase (Homo sapiens, UniProt P22303).
T1 construct: solution of hemolyzed erythrocytes diluted 400-fold; from tissue; host or cells: hemolyzed erythrocytes from blood of healthy human donors
T1 sequence (P22303 32-617 isoform P22303-2 limits assumed): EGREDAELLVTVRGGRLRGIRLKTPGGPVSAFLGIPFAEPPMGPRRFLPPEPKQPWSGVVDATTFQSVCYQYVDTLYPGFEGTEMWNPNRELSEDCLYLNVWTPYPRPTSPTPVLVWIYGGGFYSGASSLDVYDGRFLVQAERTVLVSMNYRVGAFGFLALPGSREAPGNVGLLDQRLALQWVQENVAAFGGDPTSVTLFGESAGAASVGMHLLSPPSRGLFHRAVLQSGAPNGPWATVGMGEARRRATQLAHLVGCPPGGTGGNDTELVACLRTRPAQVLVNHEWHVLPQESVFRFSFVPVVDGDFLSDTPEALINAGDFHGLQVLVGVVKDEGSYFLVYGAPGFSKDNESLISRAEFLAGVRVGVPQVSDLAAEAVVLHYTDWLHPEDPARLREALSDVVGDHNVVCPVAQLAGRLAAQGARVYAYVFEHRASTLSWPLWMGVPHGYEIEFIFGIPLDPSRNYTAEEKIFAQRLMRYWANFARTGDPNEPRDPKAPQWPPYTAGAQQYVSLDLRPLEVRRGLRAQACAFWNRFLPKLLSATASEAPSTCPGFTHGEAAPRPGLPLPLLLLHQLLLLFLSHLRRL
Briefly: AChE inhibition, modified Ellman's method. It is filed as biochemical.

Another data set deals with HUVEC cells. Briefly: WST-1 viability under AAPH-induced oxidative stress, HUVEC. It is filed as cell-based, human. The conditions noted are these: AAPH 17.5 mmol/L, relative to pure medium control. The procedure, abridged:
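HUVEC and astrocytes grown to confluence, given antipsychotics at ½ × TPCmax and TPCmax for 1 h, then AAPH (17.5 mmol/L HUVEC; 15.0 mmol/L astrocytes) for 24 h at 37 °C; AA 10 μg/mL as antioxidant control. WST-1 read at 450 nm after 90 min (HUVEC) or 60 min (astrocytes); viability as % of control.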

Several values for one entry are separate records, joined by “and”; a condition that tells them apart may be missing. Equal values may be shown once.

On to `OCCOCCN1CCN(C2=Nc3ccccc3Sc3ccccc32)CC1` [Quetiapine, quetiapine], for which the “methemoglobin formation with AAPH” value with human erythrocytes (80 μg/L) worked out at 17.1%; with human erythrocytes (400 μg/L) it was 18.8%. The AChE reaction velocity in data set [1] (over 4000 µg/L (two ends of the printed span), control 0.264 ± 0.014 A/min) was 0.257 ± 0.016 A/min and 0.241 ± 0.013 A/min. Moreover, the IC50 in data set [1] (theoretical values calculated on the basis of extrapolated plots) was greater than 100 µM. The “viability of HUVEC under AAPH” value turned out to be 74.9% in the data set with HUVEC cells (TPC (bromperidol 25 μg/L, quetiapine 400 μg/L)) and 66.8% in the data set on HUVEC cells (½ × TPC (bromperidol 12.5 μg/L, quetiapine 200 μg/L)).
